Experimental data taken from patent US12121522B2, “Methods of treating cancer with an mTOR inhibitor” (Revolution Medicines, Inc., priority 2022, dated 2024).
Values joined by “and” are separate entries in the source; they are usually repeats but may differ in a detail not shown here. Equal entries are not always repeated.

Columns and labels:
[1] = tested on: advanced relapsed/refractory solid tumors; experiment: Clinical efficacy (RECIST v1.1), study RMC-5552-001; assay type: in vivo, human
Protocol: Refer to FIG. 7 for a waterfall plot of best response in subjects treated at majority dose of 6 mg or 8 mg IV weekly (one hour infusion).
Subjects were evaluated at doses of 6 mg and higher. […] One patient discontinued treatment due to clinical progression without post-baseline scans. Three patients experienced radiographic progressive disease (PD).

[2] = tested on: MCF7 PIK3CA^E545K breast cancer CDX; experiment: MCF7 breast cancer xenograft; assay type: in vivo, mouse
Excerpt: FIGS. 1A-1B show Dose-Dependent Antitumor Effects of Repeated RMC-5552 Weekly Treatment in the MCF7 Xenograft Model of Human Estrogen Receptor Positive Breast Cancer in Athymic Nude Mice. Abbreviations: ANOVA=analysis of variance; IP=intraperitoneal; QW=once weekly. […] Each animal represented as a separate bar. Number of animals per group=12. Numbers indicate number of regressions at respective doses (defined as >10% reduction in tumor volume from starting volume) in each group.
(§1) The antitumor activity of RMC-5552 as a single agent against tumors predicted to be dependent on the mTOR pathway and/or bearing specific PI3K/mTOR pathway-activating mutations (i.e., PIK3CA^mut, phosphatase and tensin homolog [PTEN^LOF], or co-mutation of both and tuberous sclerosis complex [TSC^LOF]) was evaluated in selected CDX and/or PDX models
(§2) Table 1. RMC-5552 was administered IP once weekly at 1, 3, 10, and 30 mg/kg. In the breast cancer MCF7 PIK3CA^[…] model, a higher dose of 50 mg/kg once weekly and an alternate dose regimen of 30 mg/kg every 10 days were also evaluated.

[3] = tested on: TOV21G ovarian cancer CDX; experiment: TOV21G ovarian cancer xenograft; assay type: in vivo, mouse
Protocol: FIGS. 2A-2D show Antitumor Activity of RMC-5552 in the TOV21G Cell Line-Derived Xenograft Model of Human Ovarian Cancer Following Once-Weekly Administration. Abbreviations: ANOVA=analysis of variance; IP=intraperitoneal; QW=once weekly. […] Each animal represented as a separate bar. Number of animals per group=10, or n=5 in 3 mg/kg dosing arm. Numbers indicate number of regressions at respective doses (defined as >10% reduction in tumor volume from starting volume) in each group. […] FIG. 2D reflects Kaplan-Meier survival analysis of the time for TOV21G tumors to regrow to a tumor volume of 300 mm^3 following treatment cessation. Median time to regrowth in RMC-5552 3 mg/kg arm is 61 days, while 10 mg/kg dose survival time was undefined, extending past 73 days. Dotted horizontal line indicates time to regrowth of 50% of the tumors in a treatment.
as §1, §2

[4] = tested on: HCC-1954 PIK3CA^H1047R breast cancer CDX; experiment: HCC-1954 breast cancer xenograft; assay type: in vivo, mouse; conditions: two values
Protocol: as §1, §2

HN009 HNSCC PDX = experiment: HN009 HNSCC patient-derived xenograft; assay type: in vivo, mouse
Excerpt: FIGS. 3A-3B show Antitumor Activity of RMC-5552 in the HN009 Patient-Derived Xenograft Model of Human HNSCC Following Once-Weekly Administration. Abbreviations: ANOVA=analysis of variance; IP=intraperitoneal; QW=once weekly. […] Each animal represented as a separate bar. The number of tumor regressions out of total mice in that group is shown (tumor regression defined as >10% reduction in tumor volume from starting volume) in each group.
as §1, §2

[5] = tested on: murine models of mTORC1-activated cancers; conditions: mouse, in vivo
Protocol: as §1

[6] = 13 efficacy-evaluable patients at ≥6 mg
[7] = 27 efficacy-evaluable subjects, majority doses 6 mg or 8 mg IV weekly
[8] = endometrial PIK3CA, PTEN, TSC2, 8 mg QW
[9] = uterine CaSarc TSC1 LOF, 10 mg single dose, 6 mg QW

SMILES: CO[C@H]1C[C@@H]2CC[C@@H](C)[C@@](O)(O2)C(=O)C(=O)N2CCCC[C@H]2C(=O)O[C@H]([C@H](C)C[C@@H]2CC[C@@H](OC(=O)NCCOCCOCCOCCOCCOCCOCCOCCOCCC(=O)N3CCc4cc(Cn5nc(-c6ccc7oc(N)nc7c6)c6c(N)ncnc65)ccc4C3)[C@H](OC)C2)C[C@@H](O)[C@H](C)/C=C(\C)[C@@H](O)[C@@H](OC)C(=O)[C@H](C)C[C@H](C)/C=C/C=C/C=C/1C [RMC-5552]
- best response of stable disease (SD), subjects [1, 6]: 8
- confirmed partial response (PR), subjects [1, 6]: 1
- discontinued due to clinical progression without post-baseline scans, patients [1, 6]: One
- radiographic progressive disease (PD), patients [1, 6]: Three
- Disease Control Rate (DCR) [1, 7]: 74.1%
- subjects with confirmed partial response [1, 7]: one
- subjects with stable disease as best response [1, 7]: 19
- RECIST reduction ([1]; 67F NSCLC STK11, TSC2, KRAS L19F, 8 mg QW): 4% reduction
- RECIST reduction ([1]; 76F NSCLC BRAF fusion, 10 mg single dose, 6 mg QW): 22%
- reduction in sum of target lesions (RECIST), subject with confirmed PR ([1]; H&N (salivary gland) cancer, PTEN mutation, 12 mg single dose then 6 mg QW): 77.6% and 77%
- subjects with Partial Response (PR) ([1]; cancer with PTEN mutation): 1
- CA125, nadir [1, 8]: to nadir of 254; 9+ months
- CA125, peak [1, 8]: CA125 from peak of 1465
- RECIST reduction [1, 8]: 7% reduction
- subjects with Partial Response (PR) ([1]; head and neck cancer, PTEN mutation): 1
- RECIST increase (mixed) ([1]; ovarian CA TSC1 LOF, 6 mg QW): 19% increase
- reduction in CA125 ([1]; ovarian CA TSC1 LOF, 6 mg QW): 72% reduction in CA125
- reduction in FDG avidity by PET/CT ([1]; ovarian CA TSC1 LOF, 6 mg QW): Strong: 50% reduction in
- reduction in tumor size, 1 subject ([1]; salivary gland cancer): 63%
- RECIST reduction [1, 9]: 4.4%
- reduction in CA125 [1, 9]: Strong: 37% reduction in
- TGI ([2]; 1 mg/kg IP QW): 64%
- TGI ([2]; 3 mg/kg IP QW): 93%
- TGI ([2]; 10 mg/kg IP QW): 93%
- tumor regression ([2]; dose not printed on this line): 15% regression
- tumor regression ([3]; 3 mg/kg IP QW): 34% regression
- median time to regrowth to 300 mm^3 after treatment cessation ([3]; 3 mg/kg QW IP, 4 doses): 61 days
- tumor regression ([3]; 10 mg/kg IP QW): 61% regression
- time to regrowth to 300 mm^3 after treatment cessation (undefined) ([3]; 10 mg/kg QW IP, 4 doses): > 73 days
- TGI ([4]; 1 mg/kg IP QW): 79% and 81%
- TGI ([4]; 3 mg/kg IP QW): 94% and 96%
- TGI ([4]; 10 mg/kg IP QW): 95% and 92%
- TGI (HN009 HNSCC PDX; 3 mg/kg IP QW): 91%
- tumor regression (HN009 HNSCC PDX; 10 mg/kg IP QW): 17% regression
- tolerability of doses and regimens [5]: generally well-tolerated
